# According to patent publication US9376442B2, “Methylpyrrolopyrimidinecarboxamides” (Takeda GmbH, priority 2009, dated 2016):
# Molecular target: T1, PDE5A1 (Homo sapiens, UniProt O76074)
# T1 construct: from tissue; host or cells: human platelets from fresh donor blood (10,000 x g supernatant of sonicated lysate)
# Assay: Inhibition of type 5 phosphodiesterase (PDE5) activity, modified SPA test with human platelet lysate
# Format: biochemical
# Conditions: 0.5 μM cGMP, read-out: PDE5A1 inhibitory values [measured as −log IC50 (mol/l)] (converted)
# Summary of the method: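 Scintillation proximity assay with [3H]cGMP tracer at 0.5 μM total cGMP, stopped after 15 min with beads containing IBMX. PDE3 and PDE2 activities suppressed with motapizone (1 μM) and a PDE2 inhibitor (10 nM). Human platelet supernatant served as the enzyme, with compound preincubated 5 min at 37° C; IC50 values from concentration-effect curves.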
row,SMILES,IC50
1,"COc1cc(OCC2CC2)c(-c2ncnc3c(C(=O)N[C@@H]4CCN(C(C)=O)C[C@H]4O)c(C)[nH]c23)cc1F (relative stereo) [Example E142, N-[(3R*,4R*)-1-Acetyl-3-hydroxypiperidin-4-yl]-4-[2-(cyclopropylmethoxy)-5-fluoro-4-methoxyphenyl]-6-methyl-5H-pyrrolo[3,2-d]pyrimidine-7-carboxamide]",< 1 nM
2,"CCOc1ccc(C(F)(F)F)cc1-c1ncnc2c(C(=O)NC3CCN(C(=O)CC)CC3)c(C)[nH]c12 [Example E100, 4-[2-Ethoxy-5-(trifluoromethyl)phenyl]-6-methyl-N-(1-propanoylpiperidin-4-yl)-5H-pyrrolo[3,2-d]pyrimidine-7-carboxamide]",< 1 nM
3,"CC(=O)N[C@H]1CC[C@@H](NC(=O)c2c(C)[nH]c3c(-c4c(OCC5CC5)ccc5c4OCO5)ncnc23)CC1 [Example E9, N-(cis-4-acetamidocyclohexyl)-4-[5-(cyclopropylmethoxy)-1,3-benzodioxol-4-yl]-6-methyl-5H-pyrrolo[3,2-d]pyrimidine-7-carboxamide]",< 1 nM
4,"CC(=O)N1CC[C@H](NC(=O)c2c(C)[nH]c3c(-c4ccc(F)cc4OCC4CC4)ncnc23)[C@@H](O)C1 (relative stereo) [Example E34, N-[(3S*,4S*)-1-acetyl-3-hydroxypiperidin-4-yl]-4-[2-(cyclopropylmethoxy)-4-fluorophenyl]-6-methyl-5H-pyrrolo[3,2-d]pyrimidine-7-carboxamide]",< 1 nM
5,"CC(=O)N[C@H]1CC[C@@H](NC(=O)c2c(C)[nH]c3c(-c4ccc(F)cc4OCC4CC4)ncnc23)CC1 [Example E25, N-(cis-4-acetamidocyclohexyl)-4-[2-(cyclopropylmethoxy)-4-fluorophenyl]-6-methyl-5H-pyrrolo[3,2-d]pyrimidine-7-carboxamide]",< 1 nM
6,"CCC(=O)N1C[C@@H](O)[C@H](NC(=O)c2c(C)[nH]c3c(-c4ccc(OC)cc4OCC4CC4)ncnc23)C1 (relative stereo) [Example E64, 4-[2-(Cyclopropylmethoxy)-4-methoxyphenyl]-N-[(3R*,4R*)-4-hydroxy-1-propionylpyrrolidin-3-yl]-6-methyl-5H-pyrrolo[3,2-d]pyrimidine-7-carboxamide]",< 1 nM
7,"CC(=O)N[C@H]1CC[C@H](NC(=O)c2c(C)[nH]c3c(-c4c(OCC5CC5)ccc5c4OCO5)ncnc23)CC1 [Example E5, N-(trans-4-acetamidocyclohexyl)-4-[5-(cyclopropylmethoxy)-1,3-benzodioxol-4-yl]-6-methyl-5H-pyrrolo[3,2-d]pyrimidine-7-carboxamide]",< 1 nM
8,"CCOC(=O)N[C@H]1CC[C@@H](NC(=O)c2c(C)[nH]c3c(-c4c(OCC5CC5)ccc5c4OCO5)ncnc23)CC1 [Example E12, Ethyl {cis-4-[({4-[5-(cyclopropylmethoxy)-1,3-benzodioxol-4-yl]-6-methyl-5H-pyrrolo[3,2-d]pyrimidin-7-yl}carbonyl)amino]cyclohexyl}carbamate]",< 1 nM
9,"CCC(=O)N1CC[C@@H](NC(=O)c2c(C)[nH]c3c(-c4cc(F)c(OC)cc4OCC4CC4)ncnc23)[C@H](O)C1 (relative stereo) [Example E143, 4-[2-(Cyclopropylmethoxy)-5-fluoro-4-methoxyphenyl]-N-[(3R*,4R*)-3-hydroxy-1-propanoylpiperidin-4-yl]-6-methyl-5H-pyrrolo[3,2-d]pyrimidine-7-carboxamide]",< 1 nM
10,"COCC(=O)N1CC[C@@H](NC(=O)c2c(C)[nH]c3c(-c4c(OCC5CC5)ccc5c4OCO5)ncnc23)C1 [Example E15, 4-[5-(Cyclopropylmethoxy)-1,3-benzodioxol-4-yl]-N-[(3R)-1-(methoxyacetyl)pyrrolidin-3-yl]-6-methyl-5H-pyrrolo[3,2-d]pyrimidine-7-carboxamide]",< 1 nM
11,"COCC(=O)N[C@H]1CC[C@H](NC(=O)c2c(C)[nH]c3c(-c4c(OCC5CC5)ccc5c4OCO5)ncnc23)CC1 [Example E7, 4-[5-(Cyclopropylmethoxy)-1,3-benzodioxol-4-yl]-N-{trans-4-[(methoxyacetyl)amino]cyclohexyl}-6-methyl-5H-pyrrolo[3,2-d]pyrimidine-7-carboxamide]",< 1 nM
12,"CCC(=O)N1CC[C@H](O)[C@@H](NC(=O)c2c(C)[nH]c3c(-c4cc(OC)c(F)cc4OCC4CC4)ncnc23)C1 (relative stereo) [Example E117, 4-[2-(Cyclopropylmethoxy)-4-fluoro-5-methoxyphenyl]-N-[(3S*,4S*)-4-hydroxy-1-propionylpiperidin-3-yl]-6-methyl-5H-pyrrolo[3,2-d]pyrimidine-7-carboxamide]",< 1 nM
13,"CCC(=O)N1CCC(NC(=O)c2c(C)[nH]c3c(-c4cc(F)c(OC)cc4OCC4CC4)ncnc23)CC1 [Example E132, 4-[2-(Cyclopropylmethoxy)-5-fluoro-4-methoxyphenyl]-6-methyl-N-(1-propionylpiperidin-4-yl)-5H-pyrrolo[3,2-d]pyrimidine-7-carboxamide]",< 1 nM
14,"COc1cc(-c2ncnc3c(C(=O)NC4CCN(C(C)=O)CC4)c(C)[nH]c23)c(OCC2CC2)cc1F [Example E102, N-(1-Acetylpiperidin-4-yl)-4-[2-(cyclopropylmethoxy)-4-fluoro-5-methoxyphenyl]-6-methyl-5H-pyrrolo[3,2-d]pyrimidine-7-carboxamide]",< 1 nM
15,"CCC(=O)N1CC[C@@H](NC(=O)c2c(C)[nH]c3c(-c4cc(OC)c(F)cc4OCC4CC4)ncnc23)C1 [Example E180, 4-[2-(Cyclopropylmethoxy)-4-fluoro-5-methoxyphenyl]-6-methyl-N-[(3R)-1-propionylpyrrolidin-3-yl]-5H-pyrrolo[3,2-d]pyrimidine-7-carboxamide]",< 1 nM
16,"CCC(=O)N[C@H]1CC[C@H](NC(=O)c2c(C)[nH]c3c(-c4cc(C(C)=O)ccc4OCC4CC4)ncnc23)CC1 [Example E167, 4-[5-Acetyl-2-(cyclopropylmethoxy)phenyl]-6-methyl-N-[trans-4-(propanoylamino)cyclohexyl]-5H-pyrrolo[3,2-d]pyrimidine-7-carboxamide]",< 1 nM

# The remaining lines, values ahead:
row,IC50,SMILES
1,< 1 nM,"COc1cc(OCC2CC2)c(-c2ncnc3c(C(=O)N[C@H]4CC[C@H](NC(=O)CO)CC4)c(C)[nH]c23)cc1F [Example F85, 4-[2-(Cyclopropylmethoxy)-5-fluoro-4-methoxyphenyl]-N-[trans-4-(glycoloylamino)cyclohexyl]-6-methyl-5H-pyrrolo[3,2-d]pyrimidine-7-carboxamide]"
2,< 1 nM,"Cc1cc(-c2ncnc3c(C(=O)N[C@@H]4CCN(C(=O)CO)C[C@H]4O)c(C)[nH]c23)c(OCC2CC2)cc1F (relative stereo) [Example F81, 4-[2-(Cyclopropylmethoxy)-4-fluoro-5-methylphenyl]-N-[(3R*,4R*)-3-hydroxy-1-(hydroxyacetyl)piperidin-4-yl]-6-methyl-5H-pyrrolo[3,2-d]pyrimidine-7-carboxamide]"
3,< 1 nM,"Cc1cc(-c2ncnc3c(C(=O)N[C@H]4CC[C@@H](NC(=O)[C@H](C)O)CC4)c(C)[nH]c23)c(OCC2CC2)cc1F [Example F80, 4-[2-(Cyclopropylmethoxy)-4-fluoro-5-methylphenyl]-N-(cis-4-{[(2S)-2-hydroxypropanoyl]amino}cyclohexyl)-6-methyl-5H-pyrrolo[3,2-d]pyrimidine-7-carboxamide]"
4,< 1 nM,CCc1ccc(OCC2CC2)c(-c2ncnc3c(C(=O)NC4CCN(C(=O)CO)CC4)c(C)[nH]c23)c1 [Example F91]
5,< 1 nM,"COc1ccc(-c2ncnc3c(C(=O)N[C@@H]4CCN(C(=O)[C@H](C)O)C4)c(C)[nH]c23)c(OCC2CC2)c1 [Example F38, 4-[2-(Cyclopropylmethoxy)-4-methoxyphenyl]-N-{(3R)-1-[(2S)-2-hydroxypropanoyl]pyrrolidin-3-yl}-6-methyl-5H-pyrrolo[3,2-d]pyrimidine-7-carboxamide]"
6,< 1 nM,"Cc1[nH]c2c(-c3c(OCC4CC4)ccc4c3OCO4)ncnc2c1C(=O)NC1CCN(C(=O)CO)CC1 [Example F1, 4-[5-(Cyclopropylmethoxy)-1,3-benzodioxol-4-yl]-N-(1-glycoloylpiperidin-4-yl)-6-methyl-5H-pyrrolo[3,2-d]pyrimidine-7-carboxamide]"
7,< 1 nM,"COc1cc(-c2ncnc3c(C(=O)NC4CCN(C(=O)[C@H](C)O)CC4)c(C)[nH]c23)c(OCC2CC2)cc1F [Example F66, 4-[2-(Cyclopropylmethoxy)-4-fluoro-5-methoxyphenyl]-N-{1-[(2S)-2-hydroxypropanoyl]piperidin-4-yl}-6-methyl-5H-pyrrolo[3,2-d]pyrimidine-7-carboxamide]"
8,< 1 nM,"Cc1[nH]c2c(-c3c(OCC4CC4)ccc4c3OCO4)ncnc2c1C(=O)N[C@H]1CC[C@H](NC(=O)[C@H](C)O)CC1 [Example F4, 4-[5-(cyclopropylmethoxy)-1,3-benzodioxol-4-yl]-N-(trans-4-{[(2S)-2-hydroxypropanoyl]amino}cyclohexyl)-6-methyl-5H-pyrrolo[3,2-d]pyrimidine-7-carboxamide]"
9,< 1 nM,"COc1ccc(OCC2CC2)c(-c2ncnc3c(C(=O)N[C@@H]4CCN(C(=O)CO)C4)c(C)[nH]c23)c1 [Example F47, 4-[2-(cyclopropylmethoxy)-5-methoxyphenyl]-N-[(3R)-1-glycoloylpyrrolidin-3-yl]-6-methyl-5H-pyrrolo[3,2-d]pyrimidine-7-carboxamide]"
10,< 1 nM,"Cc1[nH]c2c(-c3ccc(F)cc3OCC3CC3)ncnc2c1C(=O)N[C@H]1CC[C@H](NC(=O)[C@H](C)O)CC1 [Example F14, 4-[2-(Cyclopropylmethoxy)-4-fluorophenyl]-N-(trans-4-{[(2S)-2-hydroxypropanoyl]amino}cyclohexyl)-6-methyl-5H-pyrrolo[3,2-d]pyrimidine-7-carboxamide]"
11,< 1 nM,"Cc1[nH]c2c(-c3c(OCC4CC4)ccc4c3OCO4)ncnc2c1C(=O)NC1CCN(C(=O)[C@H](C)O)CC1 [Example F2, 4-[5-(Cyclopropylmethoxy)-1,3-benzodioxol-4-yl]-N-{1-[(2S)-2-hydroxypropanoyl]piperidin-4-yl}-6-methyl-5H-pyrrolo[3,2-d]pyrimidine-7-carboxamide]"
